# From ChEMBL document CHEMBL2346533, “Structural effect of phenyl ring compared to thiadiazole based adamantyl-sulfonamides on carbonic anhydrase inhibition” (Bioorg Med Chem, 2013)
# Tests used:
# Carbonic anhydrase 1 = Carbonic anhydrase 1 (Homo sapiens, UniProt P00915); experiment: Inhibition of human carbonic anhydrase-1 cytosolic isoform after 15 mins by Stopped-flow CO2 hydrase assay
# Carbonic anhydrase 3 = Carbonic anhydrase 3 (Homo sapiens, UniProt P07451); experiment: Inhibition of human carbonic anhydrase-3 cytosolic isoform after 15 mins by Stopped-flow CO2 hydrase assay
# Carbonic anhydrase 12 = Carbonic anhydrase 12 (Homo sapiens, UniProt O43570); experiment: Inhibition of tumor-associated transmembrane human carbonic anhydrase-12 after 15 mins by Stopped-flow CO2 hydrase assay
# Carbonic anhydrase 9 = Carbonic anhydrase 9 (Homo sapiens, UniProt Q16790); experiment: Inhibition of tumor-associated transmembrane human carbonic anhydrase-9 after 15 mins by Stopped-flow CO2 hydrase assay
# Chain of Carbonic anhydrase 3 (P07451 whole entry, canonical isoform): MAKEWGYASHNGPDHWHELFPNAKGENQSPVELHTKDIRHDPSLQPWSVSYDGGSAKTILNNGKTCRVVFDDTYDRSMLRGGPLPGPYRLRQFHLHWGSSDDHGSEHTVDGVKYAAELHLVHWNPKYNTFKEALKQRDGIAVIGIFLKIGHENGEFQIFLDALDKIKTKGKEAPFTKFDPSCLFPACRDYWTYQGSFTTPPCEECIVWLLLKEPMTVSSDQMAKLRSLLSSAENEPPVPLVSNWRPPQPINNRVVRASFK
# Chain of Carbonic anhydrase 1 (P00915 whole entry, canonical isoform): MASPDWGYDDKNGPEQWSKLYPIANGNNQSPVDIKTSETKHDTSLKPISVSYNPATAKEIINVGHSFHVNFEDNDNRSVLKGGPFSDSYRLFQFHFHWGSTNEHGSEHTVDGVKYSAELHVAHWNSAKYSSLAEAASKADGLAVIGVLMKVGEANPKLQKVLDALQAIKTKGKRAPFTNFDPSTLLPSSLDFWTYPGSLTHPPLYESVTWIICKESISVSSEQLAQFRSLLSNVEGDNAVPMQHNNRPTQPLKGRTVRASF
# Chain of Carbonic anhydrase 12 (O43570 whole entry): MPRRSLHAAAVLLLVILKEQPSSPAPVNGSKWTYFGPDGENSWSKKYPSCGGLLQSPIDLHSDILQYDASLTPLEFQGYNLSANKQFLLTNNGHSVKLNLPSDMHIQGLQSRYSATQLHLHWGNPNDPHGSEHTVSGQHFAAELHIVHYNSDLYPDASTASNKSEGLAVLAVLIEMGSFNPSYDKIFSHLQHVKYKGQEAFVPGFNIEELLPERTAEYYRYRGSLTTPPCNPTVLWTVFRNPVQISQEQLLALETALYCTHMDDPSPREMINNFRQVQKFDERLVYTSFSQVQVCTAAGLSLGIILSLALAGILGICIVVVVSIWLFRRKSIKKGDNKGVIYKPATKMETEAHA
Ki (Carbonic anhydrase 1) [µM],Ki (Carbonic anhydrase 3) [µM],Ki (Carbonic anhydrase 12) [µM],Ki (Carbonic anhydrase 9) [µM],SMILES
0.34,1400,,,NS(=O)(=O)c1nnc(NC(=O)CC23CC4CC(CC(C4)C2)C3)s1
0.85,1200,,,NS(=O)(=O)c1nnc(NC(=O)C23CC4CC(CC(C4)C2)C3)s1
,> 10000,0.0094,0.0565,NS(=O)(=O)c1ccc(NC(=O)CC23CC4CC(CC(C4)C2)C3)cc1
,> 10000,0.0071,0.0513,NS(=O)(=O)c1ccc(NC(=O)C23CC4CC(CC(C4)C2)C3)cc1
